# Test results taken from patent US10669290B2, “Beta-lactamase inhibitors” (priority 2012, dated 2020).
# Read-outs that look alike come from different tables or passages of the source.
# How the values were obtained:
# Type in all cases: cell-based
# [1] = system: E. cl 144200 p99 AmpC; experiment: Broth microdilution MIC, E. cloacae 144200; settings: Enterobacter cloacae
# Description: (§1) To determine the ability of test compounds to potentiate the inhibition of the growth of bacterial strains that produce beta-lactamase enzymes, classic cell based broth microdilution MIC assays were employed. Six bacteria strains producing beta-lactamase enzymes were used: E. coli expressing the Class A Extended Spectrum Beta-Lactamase (ESBL) CTX-M-15, E. cloacae expressing the Class C P99, K. pneumoniae expressing the Class A carbapenemase KPC-2, P. aeruginosa expressing the Class B carbapenemase VIM-2, K. pneumoniae expressing the class A carbapenemase KPC-2 and the class B carbapenemase VIM-4, and S. aureus producing the Class A penicillinase PC-1. The assay was conducted in Cation Adjusted Mueller Hinton Broth (CAMHB, BD #212322, BD Diagnostic Systems, Sparks, Md.). Bacteria strains were grown for 3-5 hours in CAMBH broth. Test compounds were added to a microtiter plate in 2-fold serial dilutions in CAMHB in a final concentration range of 32 μg/mL to 0.25 μg/ml. An overlay of CAMHB containing a Beta-lactam was added to the compounds at a final static concentration of 4 μg/ml. […] In addition to the titration of test compounds the MICs of a panel of control beta-lactams is also tested to ensure the strains are behaving consistently from test to test. Once the test compound and antibiotics are added the plates can be inoculated according to CLSI broth microdilution method. After inoculation the plates are incubated for 16-20 hours at 37° C. then the Minimal Inhibitory Concentration (MIC) of the test compound is determined visually.
# (§2) Using the methodology described above in EXAMPLE III, exemplary compounds for Formula I or Formula Ia were evaluated for their ability to inhibit the growth of β-lactamase producing bacteria in the presence of a β-lactam antibiotic.
# [2] = system: E. coli ESBL4 CTX-M-15; experiment: Broth microdilution MIC, E. coli ESBL4; settings: Escherichia coli
# Description: as §1, §2
# [3] = system: S. aureus MSSA-7 PC-1; experiment: Broth microdilution MIC, S. aureus MSSA-7; settings: Staphylococcus aureus, fixed piperacillin 4 μg/mL, CAMHB, 16-20 hours 37° C., read-out: MIC of exemplary compounds in presence of fixed β-lactams, Fixed Pip, S. aureus MSSA-7 PC-1
# Description: as §1, §2
# [4] = system: K.P. A-1797 KPC-2 VIM-4; experiment: Broth microdilution MIC, K. pneumoniae A-1797; settings: Klebsiella pneumoniae; fixed meropenem 4 μg/mL, CAMHB, 16-20 hours 37° C.; read-out: MIC of exemplary compounds in presence of fixed β-lactams, Fixed Mero, K.P. A-1797 KPC-2 VIM-4
# Description: as §1, §2
# [5] = system: K.P. 156319 KPC-3; experiment: Broth microdilution MIC, K. pneumoniae 156319; settings: Klebsiella pneumoniae; fixed meropenem 4 μg/mL, CAMHB, 16-20 hours 37° C.; read-out: MIC of exemplary compounds in presence of fixed β-lactams, Fixed Mero, K.P. 156319 KPC-3
# [6] = system: P. aerug. Ps296 VIM-2; experiment: Broth microdilution MIC, P. aeruginosa Ps296; settings: Pseudomonas aeruginosa; fixed meropenem 4 μg/mL, CAMHB, 16-20 hours 37° C.; read-out: MIC of exemplary compounds in presence of fixed β-lactams, Fixed Mero, P. aerug. Ps296 VIM-2
# Description: as §1, §2
# [7] = fixed ceftazidime 4 μg/mL, CAMHB, 16-20 hours 37° C., read-out: MIC of exemplary compounds in presence of fixed β-lactams, Fixed CAZ, E. cl 144200 p99 AmpC
# [8] = ESBL4CTXM15, fixed ceftazidime 4 μg/mL, CAMHB, 16-20 hours 37° C., read-out: MIC of exemplary compounds in presence of fixed β-lactams, Fixed CAZ, E. coli ESBL4 CTX-M-15
Compound,MIC ([1]; read-out: MIC alone) [µg/mL],"MIC ([2]; ESBL4CTXM15, read-out: MIC alone) [µg/mL]",MIC [3] [µg/mL],"MIC [1, 7] [µg/mL]",MIC [4] [µg/mL],MIC [5] [µg/mL],"MIC [2, 8] [µg/mL]",MIC [6] [µg/mL]
"CC(C)(O/N=C(\C(=O)N[C@@H]1C(=O)N2C(C(=O)[O-])=C(C[n+]3ccccc3)CS[C@H]12)c1csc(N)n1)C(=O)O [Ceftazidime, reference compound]",128,> 128,,,,,,
"NC[C@H]1CC[C@H](C(=O)N[C@H]2Cc3cccc(C(=O)O)c3OB2O)CC1 [Example 1, (R)-3-(trans-4-(aminomethyl)cyclohexanecarboxamido)-2-hydroxy-3,4-dihydro-2H-benzo[e][1,2]oxaborinine-8-carboxylic acid]",,,8 to 32,< 4,< 4,< 4,< 4,< 4
"N[C@H]1CC[C@H](C(=O)N[C@H]2Cc3cccc(C(=O)O)c3OB2O)CC1 [Example 2, (R)-3-(trans-4-aminocyclohexanecarboxamido)-2-hydroxy-3,4-dihydro-2H-benzol[e][1,2]oxaborinine-8-carboxylic acid]",,,8 to 32,< 4,< 4,< 4,< 4,< 4
NC[C@H]1CC[C@H](CC(=O)N[C@H]2Cc3cccc(C(=O)O)c3OB2O)CC1 [Example 3],,,< 4,< 4,8 to 32,< 4,< 4,< 4
"N=C(N)NC[C@H]1CC[C@H](CC(=O)N[C@H]2Cc3cccc(C(=O)O)c3OB2O)CC1 [Example 4, (R)-3-(2-(trans-4-(guanidinomethyl)cyclohexyl)acetamido)-2-hydroxy-3,4-dihydro-2H-benzo[e][1,2]oxaborinine-8-carboxylic acid]",,,< 4,< 4,8 to 32,< 4,< 4,< 4
"CN(C)CC(=O)NC[C@H]1CC[C@H](CC(=O)N[C@H]2Cc3cccc(C(=O)O)c3OB2O)CC1 [Example 5, (R)-3-(2-(trans-4-((2-(dimethylamino)acetamido)methyl)cyclohexyl)acetamido)-2-hydroxy-3,4-dihydro-2H-benzo[e][1,2]oxaborinine-8-carboxylic acid]",,,< 4,< 4,> 32,8 to 32,< 4,< 4
"N[C@H]1CC[C@H](CC(=O)N[C@H]2Cc3cccc(C(=O)O)c3OB2O)CC1 [Example 6, (R)-3-(2-(trans-4-aminocyclohexyl)acetamido)-2-hydroxy-3,4-dihydro-2H-benzol[e][1,2]oxaborinine-8-carboxylic acid]",,,< 4,< 4,< 4,< 4,< 4,< 4
"N[C@H]1CC[C@@H](CC(=O)N[C@H]2Cc3cccc(C(=O)O)c3OB2O)CC1 [Example 7, (R)-3-(2-(cis-4-aminocyclohexyl)acetamido)-2-hydroxy-3,4-dihydro-2H-benzo[e][1,2]oxaborinine-8-carboxylic acid]",,,8 to 32,< 4,> 32,< 4,< 4,> 32
"CN(C)C[C@H]1CC[C@H](CC(=O)N(C)[C@H]2Cc3cccc(C(=O)O)c3OB2O)CC1 [Example 8, (R)-3-(2-(trans-4-((dimethylamino)methyl)cyclohexyl)-N-methylacetamido)-2-hydroxy-3,4-dihydro-2H-benzo[e][1,2]oxaborinine-8-carboxylic acid]",,,< 4,< 4,> 32,8 to 32,< 4,8 to 32
"N=C(N)N[C@H]1CC[C@H](CC(=O)N[C@H]2Cc3cccc(C(=O)O)c3OB2O)CC1 [Example 9, (R)-3-(2-(trans-4-guanidinocyclohexyl)acetamido)-2-hydroxy-3,4-dihydro-2H-benzo[e][1,2]oxaborinine-8-carboxylic acid]",,,< 4,< 4,8 to 32,< 4,< 4,8 to 32
"NCCNC[C@H]1CC[C@H](CC(=O)N[C@H]2Cc3cccc(C(=O)O)c3OB2O)CC1 [Example 10, (R)-3-(2-(trans-4-((2-aminoethylamino)methyl)cyclohexyl)acetamido)-2-hydroxy-3,4-dihydro-2H-benzo[e][1,2]oxaborinine-8-carboxylic acid]",,,< 4,< 4,< 4,< 4,< 4,8 to 32
"NCC1CCC(=CC(=O)N[C@H]2Cc3cccc(C(=O)O)c3OB2O)CC1 (stereo partly drawn) [Example 11, (3R)-3-(2-(4-(aminomethyl)cyclohexylidene)acetamido)-2-hydroxy-3,4-dihydro-2H-benzo[e][1,2]oxaborinine-8-carboxylic acid]",,,,< 4,8 to 32,< 4,< 4,8 to 32
"NCC1CCC(CC(=O)N[C@H]2Cc3cccc(C(=O)O)c3OB2O)(C[N+](=O)[O-])CC1 (stereo partly drawn) [Example 12, (R)-3-(2-(4-(aminomethyl)-1-(nitromethyl)cyclohexyl)acetamido)-2-hydroxy-3,4-dihydro-2H-benzo[e][1,2]oxaborinine-8-carboxylic acid]",,,,< 4,> 32,8 to 32,< 4,8 to 32
"NC[C@H](N)C(=O)N[C@H]1CC[C@H](CC(=O)N[C@H]2Cc3cccc(C(=O)O)c3OB2O)CC1 [Example 13, (R)-3-(2-(trans-4-((S)-2,3-diaminopropanamido)cyclohexyl)acetamido)-2-hydroxy-3,4-dihydro-2H-benzo[e][1,2]oxaborinine-8-carboxylic acid]",,,< 4,< 4,8 to 32,8 to 32,< 4,< 4
"CN(C)[C@H]1CC[C@H](CC(=O)N[C@H]2Cc3cccc(C(=O)O)c3OB2O)CC1 [Example 14, (R)-3-(2-(trans-4-(dimethylamino)cyclohexyl)acetamido)-2-hydroxy-3,4-dihydro-2H-benzo[e][1,2]oxaborinine-8-carboxylic acid]",,,< 4,< 4,8 to 32,< 4,< 4,> 32
"NCCN[C@H]1CC[C@H](CC(=O)N[C@H]2Cc3cccc(C(=O)O)c3OB2O)CC1 [Example 15, (R)-3-(2-(trans-4-(2-aminoethylamino)cyclohexyl)acetamido)-2-hydroxy-3,4-dihydro-2H-benzo[e][1,2]oxaborinine-8-carboxylic acid]",,,< 4,< 4,< 4,< 4,< 4,< 4
"O=C(C[C@H]1CC[C@H](N2CCNCC2)CC1)N[C@H]1Cc2cccc(C(=O)O)c2OB1O [Example 16, (R)-2-hydroxy-3-(2-(trans-4-(piperazin-1-yl)cyclohexyl)acetamido)-3,4-dihydro-2H-benzo[e][1,2]oxaborinine-8-carboxylic acid]",,,< 4,< 4,> 32,< 4,< 4,8 to 32
"O=C(C[C@H]1CC[C@@H](N2CCNCC2)CC1)N[C@H]1Cc2cccc(C(=O)O)c2OB1O [Example 17, (R)-2-hydroxy-3-(2-(cis-4-(piperazin-1-yl)cyclohexyl)acetamido)-3,4-dihydro-2H-benzo[e][1,2]oxaborinine-8-carboxylic acid]",,,< 4,< 4,> 32,< 4,< 4,> 32
